Data published in the supplement of paper PMC10307832.

Assays:
Assay in all cases: relative viability (nuclei count vs DMSO), 5 days (fraction); higher = more cells survive
RU-SKI 43 + Palbociclib = compound: CC[C@@H](C)CNCC(=O)N1CCC2=C([C@@H]1COC3=CC=CC(=C3)C)C=CS2 [RU-SKI 43] + CC(=O)c1c(C)c2cnc(Nc3ccc(N4CCNCC4)cn3)nc2n(C2CCCC2)c1=O [Palbociclib] (partner 0.5 µM)
Summary of the method: (§1)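 For relative viability, nuclei counts in treated wells were divided by those in vehicle wells. Lung cancer cell lines had been pin-tool dosed in 1536-well plates the day after seeding and cultured for 5 days, then fixed and stained in one step (final 0.05% Triton X-100, 1% formaldehyde, 1 ug/ml Hoechst) and imaged at 4×. Doses were one drug alone or a fixed anchor-drug dose plus five library-drug doses (not always all listed) in √10 steps, and values are duplicate-plate medians.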

Irinotecan + Phenformin = compound: CCc1c2c(nc3ccc(OC(=O)N4CCC(N5CCCCC5)CC4)cc13)-c1cc3c(c(=O)n1C2)COC(=O)[C@]3(O)CC [Irinotecan] + N=C(N)NC(=N)NCCc1ccccc1 [Phenformin] (partner 250 µM)
Summary of the method: as §1

Irinotecan + Olaparib = compound: CCc1c2c(nc3ccc(OC(=O)N4CCC(N5CCCCC5)CC4)cc13)-c1cc3c(c(=O)n1C2)COC(=O)[C@]3(O)CC [Irinotecan] + O=C(c1cc(Cc2n[nH]c(=O)c3ccccc23)ccc1F)N1CCN(C(=O)C2CC2)CC1 [Olaparib] (partner 8 µM)
Summary of the method: as §1

MK-8033 + Phenformin = compound: Cn1cc(-c2cnc3ccc4ccc(CS(=O)(=O)NCc5ccccn5)cc4c(=O)c3c2)cn1 [MK-8033] + N=C(N)NC(=N)NCCc1ccccc1 [Phenformin] (partner 250 µM)
Summary of the method: as §1

Cell Line	relative viability (RU-SKI 43 + Palbociclib; first compound 0.1 µM)	relative viability (RU-SKI 43 + Palbociclib; first compound 0.3162 µM)	relative viability (RU-SKI 43 + Palbociclib; first compound 1 µM)	relative viability (RU-SKI 43 + Palbociclib; first compound 3.162 µM)	relative viability (RU-SKI 43 + Palbociclib; first compound 10 µM)	relative viability (Irinotecan + Phenformin; first compound 0.6325 µM)	relative viability (Irinotecan + Phenformin; first compound 2 µM)	relative viability (Irinotecan + Phenformin; first compound 6.325 µM)	relative viability (Irinotecan + Phenformin; first compound 20 µM)	relative viability (Irinotecan + Olaparib; first compound 0.6325 µM)	relative viability (Irinotecan + Olaparib; first compound 2 µM)	relative viability (Irinotecan + Olaparib; first compound 6.325 µM)	relative viability (Irinotecan + Olaparib; first compound 20 µM)	relative viability (MK-8033 + Phenformin; first compound 0.02 µM)	relative viability (MK-8033 + Phenformin; first compound 0.06325 µM)	relative viability (MK-8033 + Phenformin; first compound 0.2 µM)	relative viability (MK-8033 + Phenformin; first compound 0.6325 µM)	relative viability (MK-8033 + Phenformin; first compound 2 µM)
SK-MES-1	0.292	0.304	0.34	0.344	0.26	0.582	0.51	0.264	0.191	0.364	0.293	0.325	0.255	0.67	0.622	0.634	0.719	0.671
HOP-62	0.462	0.508	0.532	0.469	0.403	0.443	0.532	0.267	0.204		0.201	0.147	0.169	0.674	0.646	0.631	0.703	0.639
NCI-H520	0.247	0.241	0.259	0.237	0.148	0.542	0.649	0.317	0.258	0.23	0.277	0.309	0.145	0.766	0.424	0.503	0.639	0.542
EBC-1										0.228	0.224	0.257	0.188					
BEN	0.489	0.468	0.523	0.46	0.451	0.242	0.247	0.24	0.272	0.681	0.53	0.425	0.528	0.288	0.239	0.269	0.233	0.255
NCI-H322M	0.459	0.483	0.44	0.524	0.457	0.745	0.758	0.515	0.265	0.135	0.642	0.538	0.235	0.779	0.662	0.698	0.936	0.749
LU99A	0.376	0.442	0.53	0.399	0.387	0.369	0.37	0.208	0.301	0.126	0.126	0.119	0.15	0.859	0.747	0.773	0.845	0.751
NCI-H2405	0.504	0.603	0.551	0.576	0.503		0.392	0.309	0.279		0.495	0.256	0.0989	0.406	0.348	0.403	0.377	0.367
NCI-H1395	0.638	0.685	0.714	0.624	0.573	0.403	0.493	0.389	0.399		0.458	0.455	0.31	0.448	0.412	0.43	0.45	0.416
HCC-44	0.942	0.987	0.97	1.03	0.953		0.251	0.147	0.211	0.754	0.423	0.378	0.425	0.209	0.181	0.22	0.252	0.208
